Data on four compounds can be found in patent US20040047865A1, “Compositions and their uses” (priority 1995, published 2004).

The subject of one data set is pig endothelial cells. The settings on record: infusion into baboons; Ye et al 1994; cited from earlier work.
Data set [1] relates to porcine endothelial cells. The settings on record: Neethling et al 1994; cited from earlier work.
The subject of data set [2] is XNA IgG, normal porcine endothelial cells (PAE-68#4). The data set can be described thus: Two stage chromium release assay, inhibition of lysis by affinity-isolated IgG in the presence of sugars (FIG. 3). The class given is cell-based. As to conditions: IgG 80 μg/ml. Here is the method: (§1) Briefly normal porcine endothelial cells were grown to confluence in 96well plates before being washed and labelled with ^51chromium. Excess label was removed and the cells were exposed to different concentrations of XNA. Unbound antibody was removed and 1/8 baby rabbit complement added for 1 hour at 37° C. Cell lysis was expressed as a percentage of the total counts associated with the endothelial cells, which could be detected in the medium after incubation of the cells with complement. […] Affinity-isolated IgM (10 μg/ml) or IgG (80 μg/ml) was incubated with endothelial cells as before in the presence of varying concentrations of four different sugar preparations. The cells were then washed and exposed to baby rabbit complement as previously described.

In data set [3] the test system is XNA IgM, normal porcine endothelial cells (PAE-68#4). Kind of data set: Two stage chromium release assay, inhibition of lysis by affinity-isolated IgM in the presence of sugars (FIG. 3). The class given is cell-based. The settings on record: IgM 10 μg/ml. Here is the method: as §1

With arabinogalactan, in the data set with pig endothelial cells, the “protection of pig endothelial cells from killing by serum of infused baboons” value is reported as “A level of protection was afforded”.
For the compound `CC(=O)N[C@H]1C(O)O[C@H](CO)[C@@H](O[C@@H]2O[C@H](CO)[C@H](O)[C@H](O[C@H]3O[C@H](CO)[C@H](O)[C@H](O)[C@H]3O)[C@H]2O)[C@@H]1O` (stereo partly shown) [B-trisaccharide, Galα1,3Galβ1,4GlcNAc], the “inhibition of the cytotoxic effects of human serum on porcine endothelial cells” value in data set [1] was “best inhibitors”. In addition, the “inhibition of cell lysis / IgG binding” value in data set [2] is on record as “minimal difference”. For the same compound, in data set [3], the “inhibition of cell lysis / XNA IgM binding” value is “superior to B-disaccharide”.
Consider `OC[C@H]1O[C@H](OCC2O[C@@H](O)[C@H](O)[C@@H](O)[C@@H]2O)[C@H](O)[C@@H](O)[C@H]1O` (stereo partly shown) [melibiose], for which the “protection of pig endothelial cells from killing by serum of infused baboons” value with pig endothelial cells is reported as “A level of protection was afforded”.
Turning to `OC[C@H]1O[C@H](O[C@H]2[C@@H](O)[C@@H](CO)OC(O)[C@@H]2O)[C@H](O)[C@@H](O)[C@H]1O` (stereo partly shown) [B-disaccharide, Galα1,3Gal], the “inhibition of the cytotoxic effects of human serum on porcine endothelial cells” value in data set [1] is “best inhibitors”. Moreover, the “inhibition of cell lysis / IgG binding” value in data set [2] was “minimal difference”.
